Results taken from patent US20250311727A1, “SUBSTITUTED 2-AMINOAZINES AND SALTS THEREOF, AND USE THEREOF AS HERBICIDAL ACTIVE SUBSTANCES” (BAYER AKTIENGESELLSCHAFT, priority 2022, published 2025).

Key:
Assay type in all cases: in vivo
[1] = tested on: Amaranthus retroflexus; experiment: Post-emergence herbicidal efficacy at 320 g/ha, AMARE; settings: rated visually after about 3 weeks vs untreated controls, 100% = plants have died
Text: (§1) Unwanted plants/weeds: • ABUTH: Abutilon theophrasti • ALOMY: Alopecurus myosuroides • AMARE: Amaranthus retroflexus • DIGSA: Digitaria sanguinalis • ECHCG: Echinochloa crus-galli • KCHSC: Kochia scoparia • LOLRI: Lolium rigidum • MATIN: Matricaria inodora • POAAN: Poa annua • POLCO: Polygonum convolvulus • SETVI: Setaria viridis • STEME: Stellaria media • VERPE: Veronica persica • VIOTR: Viola tricolor A. Post-Emergence Herbicidal Efficacy at 320 g/ha
(§2) Seeds of mono- and dicotyledonous weed plants were placed in plastic pots in sandy loam soil (doubly sown with in each case one species of mono- or dicotyledonous weed plants per pot), covered with soil and cultivated in a greenhouse under controlled growth conditions. 2 to 3 weeks after sowing, the test plants were treated at the one-leaf stage. The compounds of the invention, formulated in the form of wettable powders (WP) or as emulsion concentrates (EC), were applied to the green parts of the plants as aqueous suspension or emulsion with addition of 0.5% additive at a water application rate equivalent to 600 litres per hectare. After the test plants had been kept in the greenhouse under optimum growth conditions for about 3 weeks, the activity of the preparations was rated visually in comparison to untreated controls.
(§3) For example, 100% activity=the plants have died, 0% activity=like control plants.
(§4) Tables A1 to A10 below show the effects of selected compounds of the general formula (I) according to Table 1 on various harmful plants and at an application rate corresponding to 320 g/ha, which were obtained by the trial procedure specified above.

[2] = tested on: Kochia scoparia; experiment: Post-emergence herbicidal efficacy at 320 g/ha, KCHSC; settings: rated visually after about 3 weeks vs untreated controls, 100% = plants have died
Text: as §1, §2, §3, §4

[3] = tested on: Veronica persica; experiment: Post-emergence herbicidal efficacy at 320 g/ha, VERPE; settings: rated visually after about 3 weeks vs untreated controls, 100% = plants have died
Text: as §1, §2, §3, §4

[4] = tested on: Amaranthus retroflexus; experiment: Pre-emergence herbicide efficacy at 320 g/ha, AMARE; settings: scored visually after about 3 weeks vs untreated controls, 100% = plants have died
Text: as §1
(§5) Seeds of mono- and dicotyledonous weed plants were placed in plastic pots in sandy loam soil (doubly sown with one species each of mono- or dicotyledonous weed plants per pot) and covered with soil. The compounds of the invention, formulated in the form of wettable powders (WP) or as emulsion concentrates (EC), were then applied to the surface of the covering soil as aqueous suspension or emulsion with addition of 0.5% additive at a water application rate of 600 litres per hectare (converted). After the treatment, the pots were placed in a greenhouse and kept under good growth conditions for the test plants. After about 3 weeks, the efficacy of the preparations was scored visually in comparison with untreated controls as percentages.
as §3
(§6) Tables C1 to C12 below show the effects of selected compounds of the general formula (I) according to Table 1 on various harmful plants and at an application rate corresponding to 320 g/ha, which were obtained by the trial procedure specified above.

[5] = tested on: Digitaria sanguinalis; experiment: Pre-emergence herbicide efficacy at 320 g/ha, DIGSA; settings: scored visually after about 3 weeks vs untreated controls, 100% = plants have died
Text: as §1, §5, §3, §6

[6] = tested on: Kochia scoparia; experiment: Pre-emergence herbicide efficacy at 320 g/ha, KCHSC; settings: scored visually after about 3 weeks vs untreated controls, 100% = plants have died
Text: as §1, §5, §3, §6

[7] = tested on: Matricaria inodora; experiment: Pre-emergence herbicide efficacy at 320 g/ha, MATIN; settings: scored visually after about 3 weeks vs untreated controls, 100% = plants have died
Text: as §1, §5, §3, §6

[8] = tested on: Setaria viridis; experiment: Pre-emergence herbicide efficacy at 320 g/ha, SETVI; settings: scored visually after about 3 weeks vs untreated controls, 100% = plants have died
Text: as §1, §5, §3, §6

[9] = tested on: Stellaria media; experiment: Pre-emergence herbicide efficacy at 320 g/ha, STEME; settings: scored visually after about 3 weeks vs untreated controls, 100% = plants have died
Text: as §1, §5, §3, §6

[10] = tested on: Veronica persica; experiment: Post-emergence herbicidal efficacy at 80 g/ha, VERPE; settings: rated visually after about 3 weeks vs untreated controls, 100% = plants have died
Text: as §1
(§7) Seeds of monocotyledonous and dicotyledonous weeds and crop plants were placed in sandy loam in plastic or organic planting pots, covered with soil and cultivated in a greenhouse under controlled growth conditions. 2 to 3 weeks after sowing, the test plants were treated at the one-leaf stage. The compounds of the invention, formulated in the form of wettable powders (WP) or as emulsion concentrates (EC), were then sprayed onto the green parts of the plants as aqueous suspension or emulsion with addition of 0.5% additive at a water application rate of 600 l/ha (converted). After the test plants had been kept in the greenhouse under optimum growth conditions for about 3 weeks, the activity of the preparations was rated visually in comparison to untreated controls. For example, 100% activity=the plants have died, 0% activity=like control plants.
(§8) Tables B1 to B11 below show the effects of selected compounds of the general formula (I) according to Table 1 on various harmful plants and an application rate corresponding to 80 g/ha, which were obtained by the experimental procedure mentioned above.

[11] = tested on: Abutilon theophrasti; experiment: Post-emergence herbicidal efficacy at 320 g/ha, ABUTH; settings: rated visually after about 3 weeks vs untreated controls, 100% = plants have died
Text: as §1, §2, §3, §4

[12] = tested on: Stellaria media; experiment: Post-emergence herbicidal efficacy at 320 g/ha, STEME; settings: rated visually after about 3 weeks vs untreated controls, 100% = plants have died
Text: as §1, §2, §3, §4

[13] = tested on: Abutilon theophrasti; experiment: Pre-emergence herbicide efficacy at 320 g/ha, ABUTH; settings: scored visually after about 3 weeks vs untreated controls, 100% = plants have died
Text: as §1, §5, §3, §6

[14] = tested on: Poa annua; experiment: Pre-emergence herbicide efficacy at 320 g/ha, POAAN; settings: scored visually after about 3 weeks vs untreated controls, 100% = plants have died
Text: as §1, §5, §3, §6

[15] = tested on: Veronica persica; experiment: Pre-emergence herbicide efficacy at 320 g/ha, VERPE; settings: scored visually after about 3 weeks vs untreated controls, 100% = plants have died
Text: as §1, §5, §3, §6

[16] = tested on: Echinochloa crus-galli; experiment: Post-emergence herbicidal efficacy at 320 g/ha, ECHCG; settings: rated visually after about 3 weeks vs untreated controls, 100% = plants have died
Text: as §1, §2, §3, §4

[17] = tested on: Echinochloa crus-galli; experiment: Pre-emergence herbicide efficacy at 320 g/ha, ECHCG; settings: scored visually after about 3 weeks vs untreated controls, 100% = plants have died
Text: as §1, §5, §3, §6

[18] = tested on: Amaranthus retroflexus; experiment: Post-emergence herbicidal efficacy at 80 g/ha, AMARE; settings: rated visually after about 3 weeks vs untreated controls, 100% = plants have died
Text: as §1, §7, §8

[19] = tested on: Kochia scoparia; experiment: Post-emergence herbicidal efficacy at 80 g/ha, KCHSC; settings: rated visually after about 3 weeks vs untreated controls, 100% = plants have died
Text: as §1, §7, §8

[20] = tested on: Amaranthus retroflexus; experiment: Pre-emergence herbicide efficacy at 80 g/ha, AMARE; settings: scored visually after about 3 weeks vs untreated controls, 100% = plants have died
Text: as §1
(§9) Seeds of monocotyledonous and dicotyledonous weed plants and crop plants were placed in plastic or organic planting pots and covered with soil. The compounds of the invention, formulated in the form of wettable powders (WP) or as emulsion concentrates (EC), were then applied to the surface of the covering soil as aqueous suspension or emulsion with addition of 0.5% additive at a water application rate equivalent to 600 l/ha. After the treatment, the pots were placed in a greenhouse and kept under good growth conditions for the test plants. After about 3 weeks, the efficacy of the preparations was scored visually in comparison with untreated controls as percentages. For example, 100% activity=the plants have died, 0% activity=like control plants.
(§10) Tables D1 to D12 below show the effects of selected compounds of the general formula (I) according to Table 1 on various harmful plants and an application rate corresponding to 80 g/ha, which were obtained by the experimental procedure mentioned above.

[21] = tested on: Setaria viridis; experiment: Pre-emergence herbicide efficacy at 80 g/ha, SETVI
Text: as §1, §9, §10

[22] = tested on: Viola tricolor; experiment: Pre-emergence herbicide efficacy at 80 g/ha, VIOTR
Text: as §1, §9, §10

[23] = tested on: Poa annua; experiment: Post-emergence herbicidal efficacy at 320 g/ha, POAAN; settings: rated visually after about 3 weeks vs untreated controls, 100% = plants have died
Text: as §1, §2, §3, §4

[24] = tested on: Digitaria sanguinalis; experiment: Post-emergence herbicidal efficacy at 320 g/ha, DIGSA; settings: rated visually after about 3 weeks vs untreated controls, 100% = plants have died
Text: as §1, §2, §3, §4

| SMILES | Post-emergence efficacy at 320 g/ha against AMARE in % [1] [%] | Post-emergence efficacy at 320 g/ha against KCHSC in % [2] [%] | Post-emergence efficacy at 320 g/ha against VERPE in % [3] [%] | Pre-emergence efficacy at 320 g/ha against AMARE in % [4] [%] | Pre-emergence efficacy at 320 g/ha against DIGSA in % [5] [%] | Pre-emergence efficacy at 320 g/ha against KCHSC in % [6] [%] | Pre-emergence efficacy at 320 g/ha against SETVI in % [8] [%] | Pre-emergence efficacy at 320 g/ha against STEME in % [9] [%] | Post-emergence efficacy at 80 g/ha against VERPE in % [10] [%] | Post-emergence efficacy at 320 g/ha against ABUTH in % [11] [%] | Post-emergence efficacy at 320 g/ha against STEME in % [12] [%] | Pre-emergence efficacy at 320 g/ha against POAAN in % [14] [%] | Pre-emergence efficacy at 320 g/ha against VERPE in % [15] [%] | Post-emergence efficacy at 80 g/ha against AMARE in % [18] [%] | further results |
| --- | --- | --- | --- | --- | --- | --- | --- | --- | --- | --- | --- | --- | --- | --- | --- |
| N#Cc1cnc(Nc2cccc(C#N)c2-n2cc(C(F)(F)F)cn2)nc1 [Example 1-42] | 100 | 90 | 90 | 90 | 100 | 90 | 90 | 90 |  |  |  |  |  |  | Pre-emergence efficacy at 320 g/ha against MATIN in % [7]: 100% |
| Fc1cnc(Nc2ccccc2-n2cc(C(F)(F)F)cn2)nc1 [Example 1-77] |  |  |  |  |  |  |  |  | 80 |  |  |  |  |  |  |
| Fc1cccc(Nc2ncccn2)c1-c1cc(C(F)F)no1 [Example 1-35] | 100 | 100 | 100 | 100 | 90 | 100 | 90 | 100 |  | 100 | 100 | 100 | 90 |  | Pre-emergence efficacy at 320 g/ha against ABUTH in % [13]: 100% |
| Cc1cccc(Nc2ncc(F)cn2)c1-n1cc(C(F)(F)F)cn1 [Example 1-50] | 90 |  | 90 | 100 | 90 |  | 100 | 100 |  | 90 | 90 | 90 | 90 |  | Post-emergence efficacy at 320 g/ha against ECHCG in % [16]: 90%; Pre-emergence efficacy at 320 g/ha against ABUTH in % [13]: 100%; Pre-emergence efficacy at 320 g/ha against ECHCG in % [17]: 100% |
| FC(F)c1cc(-c2c(Cl)cccc2Nc2ccc(Cl)cn2)on1 [Example 1-74] |  |  |  |  |  |  |  |  | 80 |  |  |  |  | 80 |  |
| COc1cnc(Nc2cccc(F)c2-c2cc(C(F)F)no2)nc1 [Example 1-37] | 90 | 90 | 90 | 100 | 100 | 90 | 100 | 100 |  | 100 |  | 100 |  |  | Pre-emergence efficacy at 320 g/ha against ABUTH in % [13]: 90% |
| N#Cc1cccc(Nc2ncccn2)c1-n1cc(C(F)(F)F)cn1 [Example 1-40] | 90 |  | 90 | 100 |  | 90 |  |  |  |  |  |  |  |  | Pre-emergence efficacy at 320 g/ha against MATIN in % [7]: 90% |
| O=C(CCCC(F)(F)F)c1cccnc1Nc1ncc(Cl)cn1 [Example 2-8] |  |  |  |  |  |  |  |  | 90 |  |  |  |  | 100 | Post-emergence efficacy at 80 g/ha against KCHSC in % [19]: 90% |
| Cc1cnn(-c2c(C#N)cccc2Nc2ncc(F)cn2)c1 [Example 1-67] | 100 | 90 | 100 | 100 |  | 100 | 100 | 100 | 90 | 90 | 100 | 90 | 90 | 100 | Post-emergence efficacy at 80 g/ha against KCHSC in % [19]: 90%; Pre-emergence efficacy at 320 g/ha against ECHCG in % [17]: 100%; Pre-emergence efficacy at 80 g/ha against AMARE in % [20]: 100%; Pre-emergence efficacy against SETVI [21]: 100%; Pre-emergence efficacy against VIOTR [22]: 90% |
| N#Cc1c(Cl)ccc(Nc2ncc(Cl)cn2)c1-n1cc(C(F)(F)F)cn1 [Example 1-43] | 100 | 100 |  |  |  |  |  |  |  |  |  |  |  | 90 |  |
| FC(F)(F)CCCCc1ccccc1Nc1ncc(Cl)cn1 [Example 1-2] | 100 | 90 | 100 |  |  |  |  |  |  |  |  |  |  |  | Post-emergence efficacy at 320 g/ha against POAAN in % [23]: 90% |
| Cc1cccc(Nc2ncc(Cl)cn2)c1-n1cc(C(F)(F)F)cn1 [Example 1-49] | 90 |  | 90 | 100 | 90 |  | 100 |  |  | 90 | 90 | 100 | 100 |  | Post-emergence efficacy at 320 g/ha against ECHCG in % [16]: 90% |
| N#Cc1cccc(Nc2ncc(Cl)cn2)c1-c1ccc(F)c(F)c1 [Example 1-29] | 100 | 100 | 100 | 100 |  |  |  |  |  |  | 90 |  |  |  | Post-emergence efficacy at 320 g/ha against DIGSA in % [24]: 90% |
